System: Poa annua (annual bluegrass) seeds
Experiment: Standard GAF Bioassay System (Standard Poa Bioassay), seed germination scored after 7 days
Type: in vivo
Set-up: key to GERMINATION SCORE IN THE POA BIOASSAY (±Standard Error of the Mean) / GERMINATION SCORE (±Standard Error of the Mean): germination score, 0 = no germination to 4.0 = first true leaf emerged
Settings: for reversal of the effects of GAF by amino acids, in words: in presence of WH6 culture filtrate; for toxicity of trace metal in the Poa bioassay, in words: higher concentrations tested (up to 200 μM)
Description: The seed of Poa annua (or other test seeds) were surface-sterilized by placing two to five grams of seeds in a 50 ml glass beaker, covering the seeds with a 50% (v/v) solution of H2SO4, and stirring vigorously for 5 minutes. The seed/acid mixture was filtered through a Gooch crucible and repeatedly rinsed with tap water to remove residual acid. The seeds were then placed in a beaker and covered with bleach (Clorox®, NaOCl, 5.25%) containing 1% (v/v) polyoxethylene sorbitan monolaurate (Tween®-20). The seeds were stirred for 5 minutes and then repeatedly rinsed with sterile deionized water and placed in a sterile Petri dish. The seeds were used immediately while wet or dried (spread in a thin layer and allowed to dry under a laminar flow hood with the Petri dish lid ajar for 4 to 8 hours) to prevent premature germination.
Bioassays for GAF activity were performed with Poa annua (annual bluegrass) seeds unless otherwise indicated. For each concentration of each test solution, 200 μl aliquots of solution were distributed to each of three wells of a sterile Costar® forty-eight well tissue culture plate (Corning® Costar® Number 3548). Three surface-sterilized Poa annua seeds were aseptically transferred to each well and submerged in the liquid, providing a total of nine observations for each concentration of each solution tested. The lid of the tissue culture plate was sealed with Parafilm® and the plate was placed in a germinator at 20° C. (8 hour day length at a light intensity of 50 μmol/m^2/s, 16 hour dark period) for seven days. Germination was scored on the basis of the following four-point system: • Score 0: No visible signs of germination. • Score 0.5: Seed coat split but plumule and coleorhiza are not visible. • Score 1.0: Plumule and coleorhiza visible. Plumule chlorotic and shorter than length of seed. Root not yet visible. • Score 1.5: Plumule still shorter than length of seed, but root is clearly visible. • Score 2.0: Plumule approximately equal in length to the seed. Root elongated. • Score 2.5: Plumule obviously longer than length of seed. First true leaf still enclosed in coleoptile. • Score 3.0: First true leaf emerged from coleoptile and green. Emerged portion of the leaf is obviously shorter than the coleoptile. • Score 3.5: First true leaf emerged from coleoptile and green. Emerged portion of the leaf is approximately equal in length to the coleoptile. • Score 4.0: First true leaf emerged from coleoptile and green. Emerged portion of the leaf is obviously longer than the coleoptile.

[1] = WH6 culture filtrate 0, amino acid 0.3 mM
[2] = WH6 culture filtrate 0, amino acid 1 mM
[3] = WH6 culture filtrate 0, amino acid 3 mM
[4] = WH6 culture filtrate 0, amino acid 10 mM
[5] = WH6 culture filtrate 0, amino acid 30 mM
[6] = WH6 culture filtrate 0.1X plus amino acid 0.3 mM
[7] = WH6 culture filtrate 0.1X plus amino acid 1 mM
[8] = WH6 culture filtrate 0.1X plus amino acid 3 mM
[9] = WH6 culture filtrate 0.1X plus amino acid 10 mM
[10] = WH6 culture filtrate 0.1X plus amino acid 30 mM
[11] = GAF Conc. 0, metal 12.5 μM, score 4.0 = normal germination, 1.0 = arrest
[12] = GAF Conc. 2X plus metal 12.5 μM

SMILES	POA BIOASSAY SCORES (±Standard Error of the Mean) [11]	POA BIOASSAY SCORES (±Standard Error of the Mean) (GAF Conc. 0, metal 25 μM)	POA BIOASSAY SCORES (±Standard Error of the Mean) (GAF Conc. 0, metal 50 μM)	POA BIOASSAY SCORES (±Standard Error of the Mean) (GAF Conc. 0, metal 100 μM)	POA BIOASSAY SCORES (±Standard Error of the Mean) (GAF Conc. 0, metal 200 μM)	POA BIOASSAY SCORES (±Standard Error of the Mean) [12]	POA BIOASSAY SCORES (±Standard Error of the Mean) (GAF Conc. 2X plus metal 25 μM)	POA BIOASSAY SCORES (±Standard Error of the Mean) (GAF Conc. 2X plus metal 50 μM)	POA BIOASSAY SCORES (±Standard Error of the Mean) (GAF Conc. 2X plus metal 100 μM)	POA BIOASSAY SCORES (±Standard Error of the Mean) (GAF Conc. 2X plus metal 200 μM)	also measured
C[C@H](N)C(=O)O [Alanine]	–	–	–	–	–	–	–	–	–	–	GERMINATION SCORE (±Standard Error of the Mean) [1]: 4.0 ± 0.0; GERMINATION SCORE (±Standard Error of the Mean) [2]: 3.9 ± 0.1; GERMINATION SCORE (±Standard Error of the Mean) [3]: 4.0 ± 0.0; GERMINATION SCORE (±Standard Error of the Mean) [4]: 3.9 ± 0.1; GERMINATION SCORE (±Standard Error of the Mean) [5]: 3.2 ± 0.1; GERMINATION SCORE (±Standard Error of the Mean) [6]: 1.9 ± 0.1; GERMINATION SCORE (±Standard Error of the Mean) [7]: 3.3 ± 0.1; GERMINATION SCORE (±Standard Error of the Mean) [8]: 4.0 ± 0.0; GERMINATION SCORE (±Standard Error of the Mean) [9]: 4.0 ± 0.0; GERMINATION SCORE (±Standard Error of the Mean) [10]: 4.0 ± 0.0; reversal of the effects of GAF by amino acids, in words: most effective
[Ca+2].[Cl-].[Cl-] [CaCl2]	4.00 ± 0.00	4.00 ± 0.00	4.00 ± 0.00	4.00 ± 0.00	4.00 ± 0.00	1.00 ± 0.00	1.00 ± 0.00	1.00 ± 0.00	1.00 ± 0.00	1.00 ± 0.00	–
[Cu] [Copper]	–	–	–	–	–	–	–	–	–	–	toxicity of trace metal in the Poa bioassay, in words: completely inhibiting germination
[Cl][Cu][Cl] [CuCl2]	3.3 ± 0.17	2.9 ± 0.04	1.2 ± 0.27	0.30 ± 0.28	0.00 ± 0.00	1.00 ± 0.00	2.58 ± 0.06	3.94 ± 0.06	2.97 ± 0.03	2.69 ± 0.09	–
O=S(=O)([O-])[O-].[Cu+2] [CuSO4]	3.5 ± 0.00	3.00 ± 0.00	1.11 ± 0.11	0.00 ± 0.00	0.00 ± 0.00	1.00 ± 0.00	1.00 ± 0.00	1.00 ± 0.00	3.00 ± 0.00	0.00 ± 0.00	–
O=S(=O)([O-])[O-].[Fe+2] [FeSO4]	4.00 ± 0.00	3.50 ± 0.13	3.00 ± 0.00	2.86 ± 0.44	2.47 ± 0.07	1.00 ± 0.00	1.00 ± 0.00	1.00 ± 0.00	1.00 ± 0.00	1.00 ± 0.00	–
NC(=O)CC[C@H](N)C(=O)O [Glutamine]	–	–	–	–	–	–	–	–	–	–	GERMINATION SCORE (±Standard Error of the Mean) [1]: 4.0 ± 0.0; GERMINATION SCORE (±Standard Error of the Mean) [2]: 4.0 ± 0.0; GERMINATION SCORE (±Standard Error of the Mean) [3]: 3.7 ± 0.3; GERMINATION SCORE (±Standard Error of the Mean) [4]: 3.7 ± 0.3; GERMINATION SCORE (±Standard Error of the Mean) [5]: 4.0 ± 0.0; GERMINATION SCORE (±Standard Error of the Mean) [6]: 1.4 ± 0.1; GERMINATION SCORE (±Standard Error of the Mean) [7]: 1.8 ± 0.2; GERMINATION SCORE (±Standard Error of the Mean) [8]: 3.5 ± 0.3; GERMINATION SCORE (±Standard Error of the Mean) [9]: 4.0 ± 0.0; GERMINATION SCORE (±Standard Error of the Mean) [10]: 4.0 ± 0.0; reversal of the effects of GAF by amino acids, in words: most effective
[Fe] [Iron]	–	–	–	–	–	–	–	–	–	–	toxicity of trace metal in the Poa bioassay, in words: slight toxicity
CC(C)C[C@H](N)C(=O)O [Leucine]	–	–	–	–	–	–	–	–	–	–	GERMINATION SCORE (±Standard Error of the Mean) [1]: 3.9 ± 0.2; GERMINATION SCORE (±Standard Error of the Mean) [2]: 4.0 ± 0.0; GERMINATION SCORE (±Standard Error of the Mean) [3]: 3.6 ± 0.2; GERMINATION SCORE (±Standard Error of the Mean) [4]: 3.0 ± 0.0; GERMINATION SCORE (±Standard Error of the Mean) [5]: 1.7 ± 0.1; GERMINATION SCORE (±Standard Error of the Mean) [6]: 1.5 ± 0.0; GERMINATION SCORE (±Standard Error of the Mean) [7]: 1.5 ± 0.3; GERMINATION SCORE (±Standard Error of the Mean) [8]: 3.6 ± 0.1; GERMINATION SCORE (±Standard Error of the Mean) [9]: 3.4 ± 0.1; GERMINATION SCORE (±Standard Error of the Mean) [10]: 2.8 ± 0.1
[Cl][Ni][Cl] [NiCl2]	2.78 ± 0.05	2.47 ± 0.10	1.78 ± 0.09	1.44 ± 0.06	1.00 ± 0.00	1.00 ± 0.00	1.00 ± 0.00	1.00 ± 0.00	1.00 ± 0.00	1.00 ± 0.00	–
[Cl-].[Cl-].[Zn+2] [ZnCl2]	4.00 ± 0.00	4.00 ± 0.00	4.00 ± 0.00	3.5 ± 0.00	3.00 ± 0.00	1.00 ± 0.00	1.00 ± 0.00	1.00 ± 0.00	1.00 ± 0.00	1.00 ± 0.00	–

Reference: US20100093536A1, “CONTROL OF GRASSY WEEDS WITH VINYLGLYCINES AND VINYLGLYCINE-PRODUCING ORGANISMS” (THE STATE OF OREGON ACTING BY AND THROUGH THE STATE BOARD …, priority 2008, published 2010)
